The source of these data is ChEMBL document CHEMBL1212705, “Gene expression signatures and small-molecule compounds link a protein kinase to Plasmodium falciparum motility” (Nat Chem Biol, 2008).

The nature of assay [1]: Inhibition of GST-fused Plasmodium falciparum recombinant CDPK1 expressed in Escherichia coli Rosetta 2 assessed as inhibition of [gamma-33P]ATP incorporation into substrate peptide by scintillation counting.
Assay [2] has as its system Plasmodium falciparum. The assay can be described thus: Antiplasmodial activity against Plasmodium falciparum 3D7 after 72 hrs by SYBR green assay. Format: functional, organism-based. As to conditions: 3D7, 72 h.
For assay [3], the system named is Plasmodium falciparum. The assay can be described thus: Antiplasmodial activity against Plasmodium falciparum 3D7 by [3H]hypoxanthine incorporation assay. Particulars: 3D7, 3 h.

As for `N[C@H]1CC[C@H](Nc2nc(Nc3ccc(C(=O)N4CCCCC4)cc3)c3ncn(-c4cccc(OCc5ccccc5)c4)c3n2)CC1`, in assay [1], the IC50 (commonly the concentration at which inhibition is half-maximal) came out at 4040 nM. Besides, the EC50 – broadly, the concentration needed to bring the measured effect to its halfway point – in assay [2] amounted to 312 nM.
The like results for `N[C@H]1CC[C@H](Nc2nc(Nc3ccc(C(=O)N4CCCCC4)cc3)c3ncn(-c4ccc5c(c4)OCO5)c3n2)CC1` were, in that order, 342 nM and 400 nM.
For `N[C@H]1CC[C@H](Nc2nc(Nc3ccc(C(=O)N4CCCCC4)cc3)c3ncn(-c4cccc(C(=O)O)c4)c3n2)CC1`, in that order: 71 nM and more than 10000 nM.
For `N[C@H]1CC[C@H](Nc2nc(Nc3ccc(C(=O)N4CCCCC4)cc3)c3ncn(-c4ccc(C(=O)O)cc4)c3n2)CC1`, in that order: 28 nM and more than 10000 nM.
Take `CCOc1ccc(-n2cnc3c(Nc4ccc(C(=O)N5CCCCC5)cc4)nc(N[C@H]4CC[C@H](N)CC4)nc32)cc1`: the IC50 in assay [1] amounted to 240 nM. This compound registered a half-maximal effective concentration (EC50) in assay [2] of 535 nM.
For `CC(C)(C)c1ccc(-n2cnc3c(Nc4ccc(C(=O)N5CCCCC5)cc4)nc(N[C@H]4CC[C@H](N)CC4)nc32)cc1`, in that order: 3490 nM and 596 nM.
The like results for `N[C@H]1CC[C@H](Nc2nc(Nc3ccc(CN4CCOCC4)cc3)c3ncn(-c4ccccc4)c3n2)CC1` were, in that order, 703 nM and 174 nM.
For `CN1CCN(C(=O)c2cccc(Nc3nc(N[C@H]4CC[C@H](N)CC4)nc4c3ncn4-c3ccccc3)c2)CC1`, in that order: 6870 nM and 1300 nM.
Regarding `O=C(c1ccc(Nc2nc(NCCCN3CCOCC3)nc3c2ncn3-c2ccccc2)cc1)N1CCCCC1`, the IC50 in assay [1] stood at 430 nM. In assay [2], this compound registered an EC50 of 2990 nM.
For `O=C(c1ccc(Nc2nc(Nc3cnc4ccccc4c3)nc3c2ncn3-c2ccccc2)cc1)N1CCCCC1`, in that order: 3850 nM and 101 nM.
For the compound `O=C(c1ccc(Nc2nc(N[C@H]3CC[C@H](O)CC3)nc3c2ncn3-c2cccc(F)c2)cc1)N1CCCCC1`, in assay [1], the IC50 turned out to be 150 nM. In assay [2], this compound came in with an EC50 of more than 10000 nM.
As for `O=C(c1ccc(Nc2nc(NCCc3c[nH]cn3)nc3c2ncn3-c2cccc(Cl)c2)cc1)N1CCCCC1`, the IC50 in assay [1] stood at 626 nM. The concentration for a half-maximal effect (EC50) in assay [2] came to 352 nM.
For `C[C@@H]1CC[C@H]2[C@@H](C)C(=O)O[C@@H]3O[C@@]4(C)CC[C@@H]1[C@]32OO4` [ARTEMISININ], the values for the EC50 in assay [2] and in assay [3] were 28 nM and less than 10 nM, respectively.
With `CCN(CC)CCCC(C)Nc1ccnc2cc(Cl)ccc12` (configuration not stated) [CHLOROQUINE], the EC50 in assay [3] is less than 10 nM.
